Literature values in US20040029723A1, “Novel aminophosphonium compounds” (Clariant GmbH, priority 1999, published 2004).

Settings: background statement, no test or data described

CCN(CC)[P+](N(CC)CC)(N(CC)CC)N(CC)CC.[Br-] [Tetrakis(diethylamino)phosphonium Bromide]
dermal toxicity: very high
